Data as given in paper PMC5923123, “In Vitro and In Vivo Efficacy of a Novel and Long-Acting Fungicidal Azole, PC1244, on Aspergillus fumigatus Infection” (Antimicrobial Agents and Chemotherapy, 2018).
Converted amounts (≈) assume the structure as drawn. “And” between values parts separate entries of the source, which are not always exact repeats. Equal entries are not always repeated. Where two headings read alike, the source gives them in different places.

What was measured:
[1] = test system: 96 clinically isolated A. fumigatus strains; experiment: EUCAST MIC against clinical isolates (visual); format: cell-based, Aspergillus fumigatus; conditions: 96 clinical isolates, visual; for MIC50 / MIC90 / MIC: Aspergillus fumigatus
Description: The antifungal activity of PC1244 was further evaluated against 96 clinical isolates (obtained from Saint Louis Hospital, Paris, France [50 isolates], and the North West England Mycology Reference Centre, Manchester, UK [46 isolates]). […] .

[2] = test system: Chaetomium globosum (ATCC 44699); experiment: CLSI MIC; format: cell-based; conditions: ATCC44699, 1 strain
[3] = test system: Aspergillus flavus (AFL8, NRRC3357); experiment: EUCAST MIC; format: cell-based
[4] = test system: Cladosporium argillaceum (ATCC 38013); experiment: CLSI MIC; format: cell-based; conditions: Rhizocladosporium argillaceum, ATCC38013, 1 strain
[5] = test system: A. fumigatus hyphae (NCPF2010); experiment: Persistence of action on A. fumigatus hyphae (resazurin microtiter assay); format: cell-based, Aspergillus fumigatus; conditions: Aspergillus fumigatus, NCPF2010
Experimental: The duration of action of test agents within the hyphae of A. fumigatus has been determined using a resazurin-based microtiter assay ([28]).
The persistence of action of the test agents against A. fumigatus hyphae (NCPF2010) was determined as previously reported ([28]). […] The plates were incubated for exactly 20 min at 35°C in 5% CO2. After the incubation time had elapsed, all wells on the designated washout plate were aspirated and growth medium (100 μl/well) was added across the plate. […] Resazurin (0.04% diluted in growth medium) was added to all wells of both the nonwashout and washout plates (5 μl/well) to give a final concentration of 0.002% resazurin. The plates were incubated at 35°C in 5% CO2 for 16 h. Subsequently, the fluorescence in each well was measured at an excitation λ of 545 nm and an emission λ of 600 nm using a multiscanner (Clariostar; BMG, Buckinghamshire, UK). […] This study was conducted in quadruplicate in three independent experiments.

[6] = test system: Aspergillus flavus (ATCC 204304); experiment: CLSI MIC; format: cell-based
A. fumigatus (NCPF2010) [7] = experiment: Fungicidal activity by subculture on agar (CFU-MFC); conditions: for MFC: Aspergillus fumigatus, NCPF2010, 48 h, read-out: CFU-MFC
Experimental: After the MIC for each compound was recorded, fungicidal activity was determined as previously described ([35]). Briefly, medium from each well (100 μl/well) was removed after pipetting up and down five times and subcultured onto 4% Sabouraud dextrose agar plates. The plates were incubated (35°C with ambient air) for 48 h, and the numbers of CFU were counted for each compound concentration. The minimum fungicidal concentration (MFC) was determined as the lowest compound concentration yielding 3 colonies or less.

[8] = test system: Lichtheimia corymbifera (ATCC 7909); experiment: CLSI MIC; format: cell-based; conditions: ATCC7909, 1 strain
[9] = test system: Mucor circinelloides (ATCC 8542); experiment: CLSI MIC; format: cell-based; conditions: ATCC8542, 1 strain
A. fumigatus (NCPF2010) [10] = experiment: Fungicidal activity by XTT colorimetric method (XTT-MFC); conditions: for MFC: NCPF2010, read-out: XTT-MFC
Experimental: In addition, the fungicidal effect of each compound was determined using 2,3-bis-(2-methoxy-4-nitro-5-sulfophenyl)-2H-tetrazolium-5-carboxanilide salt (XTT)-based quantitative colorimetric analysis (XTT-MFC).
After the removal of medium for culture-based testing of the number of CFU, the contents of all wells were carefully aspirated and warm PBS (200 μl/well) was added. After gentle agitation, the contents of all wells were aspirated and fresh medium was added (200 μl/well). The plates were incubated (35°C with ambient air) for 24 h. […] The plates were incubated (35°C with ambient air) for 2 h, after which the plates were agitated gently for 2 min. The optical density (OD) of each well at 450 nm and 620 nm was measured using a multiscanner (Clariostar; BMG, Buckinghamshire, UK).

[11] = test system: ergosterol production in A. fumigatus (NCPF2010); experiment: A. fumigatus cell-based ergosterol assay; conditions: Aspergillus fumigatus, NCPF2010, 24 h, read-out: IC50, inhibition of ergosterol production
Experimental: CYP51 enzyme-inhibitory activity was also measured in a cell-based assay, as described previously ([28]). In this plate-based ergosterol quantification experiment, oxidation of ergosterol by cholesterol oxidase was determined by observing the conversion of the weakly fluorescent resazurin to the highly fluorescent resorufin and was normalized using crystal violet staining (indicating cell number).
After incubation for 24 h at 35°C, the medium was removed from all wells and replaced with reaction buffer (catalog number A12216; Amplex red cholesterol assay kit; Thermo Fisher) and Amplex red solution. The plates were incubated for 30 min at 37°C with protection from light, after which the fluorescence was quantified using a spectrophotometer. The medium was removed from all wells and replaced with crystal violet solution (1%, vol/vol), and the plates were incubated at room temperature on a shaker for 30 min. The plates were washed three times with phosphate-buffered saline (PBS), and sodium dodecyl sulfate solution (0.1%, vol/vol) was added across the plate to lyse the cells. After incubation at room temperature for 1 h, the absorbance (OD) at 590 nm was measured using a spectrophotometer.

[12] = test system: Trichophyton rubrum (ATCC 10218); experiment: CLSI MIC; format: cell-based; conditions: ATCC10218, 1 strain
[13] = test system: Aspergillus niger (ATCC 1015); experiment: EUCAST MIC; format: cell-based
[14] = test system: Penicillium citrinum (ATCC 9849); experiment: CLSI MIC; format: cell-based; conditions: ATCC9849, 1 strain
[15] = test system: BEAS2B cells infected with A. fumigatus; experiment: Persistence of action in bronchial epithelial cells (galactomannan in supernatant); format: cell-based, Aspergillus fumigatus; conditions: for IC50: Aspergillus fumigatus, BEAS-2B, GM readout
Experimental: In a second system, the persistence of the action of the same three agents on A. fumigatus-infected bronchial epithelial cells was quantified using galactomannan (GM) production in the culture supernatant as an index of fungal growth. BEAS2B cells were infected with A. fumigatus, and the effects of a 24-h washout period (medium change) prior to infection were examined.
The persistence of action of the test agents was evaluated in immortalized bronchial epithelial cells (BEAS2B cells) as previously reported ([28]). […] The plate was incubated for exactly 1 h at 37°C in 5% CO2. After the incubation time had elapsed, all wells on the washout plate were aspirated and growth medium (100 μl/well) was added across the plate. […] The plate was incubated for exactly 1 h at 37°C in 5% CO2, after which A. fumigatus conidia were added across both plates at a final concentration of 1 × 10^3/well. […] This study was conducted in triplicate in three independent experiments.

[16] = test system: Candida albicans (20240.047, ATCC 10231); experiment: CLSI MIC; format: cell-based
A. fumigatus AF91 = experiment: EUCAST broth microdilution growth inhibition (OD 530 nm, 384-well); format: cell-based; conditions: Aspergillus fumigatus, strain AF91 (ITC-resistant), 48 h
Experimental: (§1) The antifungal activities of the test compounds against A. fumigatus strains (itraconazole [ITC]-susceptible strains NCPF2010, AF294, and AF293; ITC-resistant strains AF72 and AF91) were calculated from growth curves generated by spectrophotometric analysis and compared to the activities against positive and negative controls.

A. fumigatus AF293 = experiment: as above; format: cell-based; conditions: Aspergillus fumigatus, strain AF293 (ITC-susceptible), 48 h
Experimental: as §1

A. fumigatus NCPF2010 = experiment: as above; format: cell-based; conditions: Aspergillus fumigatus, strain NCPF2010 (ITC-susceptible), 48 h, range tested 0.002 to 1 μg/ml
Experimental: as §1

A. fumigatus AF294 = experiment: as above; format: cell-based; conditions: Aspergillus fumigatus, strain AF294 (ITC-susceptible), 48 h
Experimental: as §1

A. fumigatus AF72 = experiment: as above; format: cell-based; conditions: Aspergillus fumigatus, strain AF72 (ITC-resistant), 48 h
Experimental: as §1

[17] = 20 min contact, washout, 16 h incubation, read-out: Hyphae IC50 Washout
[18] = continuous contact 16 h, read-out: Hyphae IC50 No washout
[19] = Aspergillus fumigatus, NCPF2010, read-out: maximum inhibition of fungicidal activity
[20] = 1 h contact before infection, no washout, read-out: BEAS2B cells IC50 No washout
[21] = 1 h contact then 24-h washout before infection, read-out: BEAS2B cells IC50 Washout

Row | SMILES | MIC Range [1] [µg/mL] | MIC50 [1] [µg/mL] | MIC90 [1] [µg/mL] | MIC ([1]; read-out: MIC Geometric mean) [µg/mL] | MIC ([1]; read-out: MIC Mode) [µg/mL] | MIC [2] [µg/mL] | MIC [4] [µg/mL] | IC50 [5, 17] [µg/mL] | IC50 [5, 18] [µg/mL] | MFC (A. fumigatus (NCPF2010) [7]) [µg/mL] | MIC [8] [µg/mL] | MIC [9] [µg/mL] | MFC (A. fumigatus (NCPF2010) [10]; Aspergillus fumigatus) [µg/mL] | IC50 [11] | MIC [12] [µg/mL] | MIC [14] [µg/mL] | IC50 [15, 20] [µg/mL] | IC50 [15, 21] [µg/mL] | IC50 (A. fumigatus AF91) [µg/mL] | IC90 (A. fumigatus AF91) [µg/mL] | further results
1 | C[C@@H](c1ncncc1F)[C@](O)(Cn1cncn1)c1ccc(F)cc1F [Voriconazole, voriconazole] | 0.06 to 4 | 0.5 (≈ 1.43 µM) | 1 (≈ 2.86 µM) | 0.42 (≈ 1.2 µM) | 0.5 (≈ 1.43 µM) | 1 (≈ 2.86 µM) | 0.5 (≈ 1.43 µM) | > 1 | 0.011 (≈ 0.0315 µM) | 16 (≈ 45.8 µM) | > 8 | > 8 | > 32 | 0.067 µg/mL and 190 nM | 0.063 (≈ 0.18 µM) | > 8 | 0.054 (≈ 0.155 µM) | > 1 | 0.14 (≈ 0.401 µM) | 0.28 (≈ 0.802 µM) | MIC [3]: 0.63 µg/mL (≈ 1.8 µM); MIC ([6]; ATCC204304): 2 µg/mL (≈ 5.73 µM); inhibition at 32 µg/mL (A. fumigatus (NCPF2010) [10]; [19]): 69.2%; MIC ([13]; ATCC1015): 1 µg/mL (≈ 2.86 µM); activity after 1-h contact and 24-h washout ([15]; BEAS2B cells): ineffective; MIC ([16]; ATCC10231): 0.14 µg/mL (≈ 0.401 µM); IC50 (A. fumigatus AF293): 0.25 µg/mL (≈ 0.716 µM); IC90 (A. fumigatus AF293): 0.74 µg/mL (≈ 2.12 µM); IC50 (A. fumigatus NCPF2010): 0.15 µg/mL (≈ 0.429 µM); IC90 (A. fumigatus NCPF2010): 0.21 µg/mL (≈ 0.601 µM); IC50 (A. fumigatus AF294): 0.083 µg/mL (≈ 0.238 µM); IC90 (A. fumigatus AF294): 0.27 µg/mL (≈ 0.773 µM); IC50 (A. fumigatus AF72): 0.025 µg/mL (≈ 0.0716 µM); IC90 (A. fumigatus AF72): 0.066 µg/mL (≈ 0.189 µM)
2 | CC[C@@H]([C@H](C)O)n1ncn(-c2ccc(N3CCN(c4ccc(OC[C@@H]5CO[C@@](Cn6cncn6)(c6ccc(F)cc6F)C5)cc4)CC3)cc2)c1=O [Posaconazole, posaconazole] | 0.016 to 2 | 0.063 (≈ 0.0899 µM) | 0.5 (≈ 0.713 µM) | 0.1 (≈ 0.143 µM) | 0.032 (≈ 0.0457 µM) | 0.25 (≈ 0.357 µM) | 0.25 (≈ 0.357 µM) | 0.0022 (≈ 0.00314 µM) | 0.00045 (≈ 0.000642 µM) | 4 (≈ 5.71 µM) | > 8 | > 8 | 0.42 (≈ 0.599 µM) | 0.012 µg/mL and 17 nM | 0.031 (≈ 0.0442 µM) | 0.5 (≈ 0.713 µM) | 0.0031 (≈ 0.00442 µM) | 0.046 (≈ 0.0656 µM) | 0.038 (≈ 0.0542 µM) | 0.049 (≈ 0.0699 µM) | MIC ([3]; EUCAST, 2 strains, mean MIC, read-out: MIC): 0.16 µg/mL (≈ 0.228 µM); MIC ([6]; ATCC204304, CLSI, 1 strain, read-out: MIC): 0.13 µg/mL (≈ 0.186 µM); CFU-MFC/MIC ratio (A. fumigatus (NCPF2010) [7]; NCPF2010): 32; inhibition at 2 µg/mL (A. fumigatus (NCPF2010) [10]; [19]): 100%; XTT-MFC/MIC ratio (A. fumigatus (NCPF2010) [10]; NCPF2010): 3.4; XTT-MFC (A. fumigatus (NCPF2010) [10]; NCPF2010, cutoff 99% inhibition): 0.42 ± 0.020 µg/mL; MIC ([13]; ATCC1015, EUCAST, 1 strain, read-out: MIC): 0.2 µg/mL (≈ 0.285 µM); MIC ([16]; ATCC10231, CLSI, 2 strains, mean MIC, MIC = 50% inhibition of fungal growth, read-out: MIC): 0.081 µg/mL (≈ 0.116 µM); IC50 (A. fumigatus AF293): 0.01 µg/mL (≈ 0.0143 µM); IC90 (A. fumigatus AF293): 0.028 µg/mL (≈ 0.04 µM); IC50 (A. fumigatus NCPF2010): 0.007 µg/mL (≈ 0.00999 µM); IC90 (A. fumigatus NCPF2010): 0.0084 µg/mL (≈ 0.012 µM); IC50 (A. fumigatus AF294): 0.0056 µg/mL (≈ 0.00799 µM); IC90 (A. fumigatus AF294): 0.011 µg/mL (≈ 0.0157 µM); IC50 (A. fumigatus AF72): 0.042 µg/mL (≈ 0.0599 µM); IC90 (A. fumigatus AF72): 0.3 µg/mL (≈ 0.428 µM)
